Test results as given in US20240374517A1, “LIPIODOL FORMULATION FOR TRANSARTERIAL CHEMOIMMUNOEMBOLIZATION” (Northwestern University, priority 2021, published 2024).

Tested on: HepG2 cells
Experiment: Dox uptake and cytotoxicity in HepG2 cells
Details: with (20%) vs without (0%) PF127

COc1cccc2c1C(=O)c1c(O)c3c(c(O)c1C2=O)C[C@@](O)(C(=O)CO)C[C@@H]3O[C@H]1C[C@H](N)[C@H](O)[C@H](C)O1 [Dox, doxorubicin]
cytotoxicity of Dox (CCK-8, 48 hours): not affected
cellular uptake of Dox (Dox 10 μM, 30 and 60 minutes): not affected
